Columns and labels:
[1] = test system: barnyardgrass; assay: Test C preemergence; assay type: in vivo, Echinochloa crusgalli
Outline: (§1)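 Visual injury score, 0–100 (100 = complete control), taken 10 days after treatment relative to untreated controls. Pre: directed spray onto soil over sown seeds. Post: foliar spray at one- to two-leaf stage, 2–10 cm. Solvent/surfactant formulation; loam–sand soil; greenhouse.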

[2] = test system: blackgrass; assay: Test C preemergence; assay type: in vivo, Alopecurus myosuroides
Outline: as §1

[3] = test system: corn; assay: Test C preemergence; assay type: in vivo, Zea mays
Outline: as §1

[4] = test system: green foxtail; assay: Test C preemergence; assay type: in vivo, Setaria viridis
Outline: as §1

[5] = test system: kochia; assay: Test C preemergence; assay type: in vivo, Bassia scoparia
Outline: as §1

[6] = test system: oat, wild; assay: Test C preemergence; assay type: in vivo, Avena fatua
Outline: as §1

[7] = test system: pigweed, palmer; assay: Test C preemergence; assay type: in vivo, Amaranthus palmeri
Outline: as §1

[8] = test system: ragweed; assay: Test C preemergence; assay type: in vivo, Ambrosia artemisiifolia
Outline: as §1

[9] = test system: ryegrass, Italian; assay: Test C preemergence; assay type: in vivo, Lolium multiflorum
Outline: as §1

[10] = test system: soybean; assay: Test C preemergence; assay type: in vivo, Glycine max
Outline: as §1

[11] = test system: wheat; assay: Test C preemergence; assay type: in vivo, Triticum aestivum
Outline: as §1

[12] = test system: barnyardgrass; assay: Test C postemergence; assay type: in vivo, Echinochloa crusgalli; conditions: 10 days, 0 to 100 scale (0 no effect, 100 complete control)
Outline: as §1

[13] = test system: blackgrass; assay: Test C postemergence; assay type: in vivo, Alopecurus myosuroides; conditions: 10 days, 0 to 100 scale (0 no effect, 100 complete control)
Outline: as §1

[14] = test system: corn; assay: Test C postemergence; assay type: in vivo, Zea mays; conditions: 10 days, 0 to 100 scale (0 no effect, 100 complete control)
Outline: as §1

[15] = test system: green foxtail; assay: Test C postemergence; assay type: in vivo, Setaria viridis; conditions: 10 days, 0 to 100 scale (0 no effect, 100 complete control)
Outline: as §1

[16] = test system: kochia; assay: Test C postemergence; assay type: in vivo, Bassia scoparia; conditions: 10 days, 0 to 100 scale (0 no effect, 100 complete control)
Outline: as §1

[17] = test system: oat, wild; assay: Test C postemergence; assay type: in vivo, Avena fatua; conditions: 10 days, 0 to 100 scale (0 no effect, 100 complete control)
Outline: as §1

[18] = test system: pigweed, palmer; assay: Test C postemergence; assay type: in vivo, Amaranthus palmeri; conditions: 10 days, 0 to 100 scale (0 no effect, 100 complete control)
Outline: as §1

[19] = test system: ragweed; assay: Test C postemergence; assay type: in vivo, Ambrosia artemisiifolia; conditions: 10 days, 0 to 100 scale (0 no effect, 100 complete control)
Outline: as §1

[20] = test system: ryegrass, Italian; assay: Test C postemergence; assay type: in vivo, Lolium multiflorum; conditions: 10 days, 0 to 100 scale (0 no effect, 100 complete control)
Outline: as §1

[21] = test system: soybean; assay: Test C postemergence; assay type: in vivo, Glycine max; conditions: 10 days, 0 to 100 scale (0 no effect, 100 complete control)
Outline: as §1

[22] = test system: wheat; assay: Test C postemergence; assay type: in vivo, Triticum aestivum; conditions: 10 days, 0 to 100 scale (0 no effect, 100 complete control)
Outline: as §1

[23] = test system: galium; assay: Test C postemergence; assay type: in vivo, Galium aparine; conditions: 10 days, 0 to 100 scale (0 no effect, 100 complete control)
Outline: as §1

[24] = test system: horseweed; assay: Test C postemergence; assay type: in vivo, Erigeron canadensis; conditions: 10 days, 0 to 100 scale (0 no effect, 100 complete control)
Outline: as §1

[25] = test system: barnyardgrass; assay: Test D flooded paddy test; assay type: in vivo, Echinochloa crus-galli; conditions: 250 g ai/ha, applied to paddy water, visual rating after 13 to 14 days, scale 0 to 100 (0 no effect, 100 complete control)
Outline: (§2)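 Post-flood water application at the 2-leaf stage; 3 cm flood depth kept constant; visual control rating 0–100 after 13–14 days greenhouse growth.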

[26] = test system: ducksalad; assay: Test D flooded paddy test; assay type: in vivo, Heteranthera limosa; conditions: 250 g ai/ha, applied to paddy water, visual rating after 13 to 14 days, scale 0 to 100 (0 no effect, 100 complete control)
Outline: as §2

[27] = test system: rice; assay: Test D flooded paddy test; assay type: in vivo, Oryza sativa; conditions: 250 g ai/ha, applied to paddy water, visual rating after 13 to 14 days, scale 0 to 100 (0 no effect, 100 complete control)
Outline: as §2

[28] = test system: sedge, umbrella; assay: Test D flooded paddy test; assay type: in vivo, Cyperus difformis; conditions: 250 g ai/ha, applied to paddy water, visual rating after 13 to 14 days, scale 0 to 100 (0 no effect, 100 complete control)
Outline: as §2

[29] = 500 g ai/ha, preemergence, 0 to 100 scale (0 no effect, 100 complete control)
[30] = Preemergence, 125 g ai/ha, 0 to 100 scale, 0 no effect, 100 complete control

CCOC(=O)c1ncn(-c2ccc(C)c(C(=O)N3C[C@H](C)Oc4c(Cl)cccc43)c2)n1 [Compound 342]
Barnyardgrass plant response rating [1, 29]: 60
Plant response rating, Barnyardgrass [1, 30]: 20
Blackgrass plant response rating [2, 29]: 50
Plant response rating, Blackgrass [2, 30]: 20
Corn plant response rating [3, 29]: 20
Plant response rating, Corn [3, 30]: 0
Foxtail, Green plant response rating [4, 29]: 90
Plant response rating, Foxtail, Green [4, 30]: 40
Kochia plant response rating [5, 29]: 0
Plant response rating, Kochia [5, 30]: 0
Oat, Wild plant response rating [6, 29]: 80
Plant response rating, Oat, Wild [6, 30]: 20
Pigweed, Palmer plant response rating [7, 29]: 70
Plant response rating, Pigweed, Palmer [7, 30]: 30
Ragweed plant response rating [8, 29]: 20
Plant response rating, Ragweed [8, 30]: 0
Ryegrass, Italian plant response rating [9, 29]: 80
Plant response rating, Ryegrass, Italian [9, 30]: 70
Soybean plant response rating [10, 29]: 10
Plant response rating, Soybean [10, 30]: 10
Wheat plant response rating [11, 29]: 30
Plant response rating, Wheat [11, 30]: 0
Plant response rating, Barnyardgrass ([12]; 500 g ai/ha, postemergence): 70
Plant response rating, Barnyardgrass ([12]; Postemergence, 125 g ai/ha): 60
Plant response rating, Blackgrass ([13]; 500 g ai/ha, postemergence): 80
Plant response rating, Blackgrass ([13]; Postemergence, 125 g ai/ha): 60
Plant response rating, Corn ([14]; 500 g ai/ha, postemergence): 70
Plant response rating, Corn ([14]; Postemergence, 125 g ai/ha): 70
Plant response rating, Foxtail, Green ([15]; 500 g ai/ha, postemergence): 90
Plant response rating, Foxtail, Green ([15]; Postemergence, 125 g ai/ha): 80
Plant response rating, Kochia ([16]; 500 g ai/ha, postemergence): 60
Plant response rating, Kochia ([16]; Postemergence, 125 g ai/ha): 40
Plant response rating, Oat, Wild ([17]; 500 g ai/ha, postemergence): 80
Plant response rating, Oat, Wild ([17]; Postemergence, 125 g ai/ha): 70
Plant response rating, Pigweed, Palmer ([18]; 500 g ai/ha, postemergence): 100
Plant response rating, Pigweed, Palmer ([18]; Postemergence, 125 g ai/ha): 90
Plant response rating, Ragweed ([19]; 500 g ai/ha, postemergence): 80
Plant response rating, Ragweed ([19]; Postemergence, 125 g ai/ha): 50
Plant response rating, Ryegrass, Italian ([20]; 500 g ai/ha, postemergence): 70
Plant response rating, Ryegrass, Italian ([20]; Postemergence, 125 g ai/ha): 70
Plant response rating, Soybean ([21]; 500 g ai/ha, postemergence): 90
Plant response rating, Soybean ([21]; Postemergence, 125 g ai/ha): 100
Plant response rating, Wheat ([22]; 500 g ai/ha, postemergence): 80
Plant response rating, Wheat ([22]; Postemergence, 125 g ai/ha): 70
Plant response rating, Galium ([23]; 500 g ai/ha, postemergence): 80
Plant response rating, Galium ([23]; Postemergence, 125 g ai/ha): 70
Plant response rating, Horseweed ([24]; 500 g ai/ha, postemergence): 50
Plant response rating, Horseweed ([24]; Postemergence, 125 g ai/ha): 10
Plant response rating, Barnyardgrass (Flood) [25]: 0
Plant response rating, Ducksalad (Flood) [26]: 10
Plant response rating, Rice (Flood) [27]: 15
Plant response rating, Sedge, Umbrella (Flood) [28]: 15
